Laboratory results as given in the supplement of paper PMC11061612.

What was measured:
Assay in all cases: combination Emax (second highest fraction inhibited in the dose matrix, 72 h); higher = more inhibition; extreme values may be limits of the assay
A673 (Ewing's Sarcoma) = test system: A673 (Ewing's Sarcoma)
How it was run: (§1)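 Cell lines in DMEM/F12 or RPMI with 10% FBS were plated in 1536-well plates, held 24 hours at 37°C, 5% CO2, then given two-drug dose matrices for 72 hours (DMSO typically 0.2%). Viability was read by CellTiter-Glo 2.0 luminescence and scaled as inhibition from 0 (vehicle wells) to 1 (blank wells). Combination Emax is the second-highest inhibition in the matrix; Bliss excess is observed combination effect minus expected EA + EB − EA·EB, EA and EB being single-agent effects.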

[1] = test system: ALL-PO (B-Lymphoblastic Leukemia)
How it was run: as §1

BPH-1 (Non-Cancerous) = test system: BPH-1 (Non-Cancerous)
How it was run: as §1

[2] = test system: CAL-33 (Oral Cavity Carcinoma)
How it was run: as §1

EW-11 (Ewing's Sarcoma) = test system: EW-11 (Ewing's Sarcoma)
How it was run: as §1

[3] = test system: FTC-133 (Thyroid Gland Carcinoma)
How it was run: as §1

[4] = test system: HH (T-Cell Non-Hodgkin's Lymphoma)
How it was run: as §1

[5] = test system: HeLa (Cervical Carcinoma)
How it was run: as §1

[6] = test system: Hs-746T (Gastric Carcinoma)
How it was run: as §1

[7] = test system: LCLC-97TM1 (Non-Small Cell Lung Carcinoma)
How it was run: as §1

[8] = test system: NCI-H1568 (Lung Adenocarcinoma)
How it was run: as §1

[9] = test system: NCI-H209 (Small Cell Lung Carcinoma)
How it was run: as §1

[10] = test system: NCI-H524 (Small Cell Lung Carcinoma)
How it was run: as §1

[11] = test system: NUGC-4 (Gastric Carcinoma)
How it was run: as §1

[12] = test system: SAS (Oral Cavity Carcinoma)
How it was run: as §1

[13] = test system: SNU-449 (Hepatocellular Carcinoma)
How it was run: as §1

[14] = test system: SW1573 (Lung Adenocarcinoma)
How it was run: as §1

[15] = test system: TGBC1TKB (Biliary Tract Carcinoma)
How it was run: as §1

[16] = test system: WSU-NHL (B-Cell Non-Hodgkin's Lymphoma)
How it was run: as §1

[17] = test system: YAPC (Pancreatic Carcinoma)
How it was run: as §1

SMILES	combination Emax (A673 (Ewing's Sarcoma))	combination Emax [1]	combination Emax (BPH-1 (Non-Cancerous))	combination Emax [2]	combination Emax (EW-11 (Ewing's Sarcoma))	combination Emax [3]	combination Emax [4]	combination Emax [5]	combination Emax [6]	combination Emax [7]	combination Emax [8]	combination Emax [9]	combination Emax [10]	combination Emax [11]	combination Emax [12]	combination Emax [13]	combination Emax [14]	combination Emax [15]	combination Emax [16]	combination Emax [17]
CN(C)CCCOc1ccc(-c2ccc3ncc4c(c3c2)n(C2CCOCC2)c(=O)n4C)cn1 [AZD0156] + C=CCn1c(=O)c2cnc(Nc3ccc(N4CCN(C)CC4)cc3)nc2n1-c1cccc(C(C)(C)O)n1 [AZD1775] (first compound max 1 µM, partner max 1 µM)	0.564	0.959	0.457	0.643	0.486	0.536	0.442	0.498	0.491	0.828	0.419	0.84	0.792	0.273	0.548	0.142	0.268	0.134	0.948	0.251
CN(C)CCCOc1ccc(-c2ccc3ncc4c(c3c2)n(C2CCOCC2)c(=O)n4C)cn1 [AZD0156] + CCN(CCO)CCCOc1ccc2c(Nc3cc(CC(=O)Nc4cccc(F)c4)[nH]n3)ncnc2c1 [AZD2811] (first compound max 1 µM, 7x7, partner max 1 µM)	0.75	0.977	0.459	0.71	0.409	0.284	0.151	0.156	0.155	0.371	0.131	0.552	0.973	0.0855	0.0904	0.0548	0.168	0.0674	0.879	0.137
CN(C)CCCOc1ccc(-c2ccc3ncc4c(c3c2)n(C2CCOCC2)c(=O)n4C)cn1 [AZD0156] + C[C@@H]1COCCN1C2=NC(=NC(=C2)C3(CC3)[S@](=N)(=O)C)C4=C5C=CNC5=NC=C4 [AZD6738] (first compound max 1 µM, 7x7, partner max 10 µM)	0.907	0.922	0.427	0.782	0.668	0.666	0.427	0.679	0.636	0.88	0.49	0.854	0.858	0.639	0.855	0.176	0.196	0.397	0.998	0.294
CN(C)CCCOc1ccc(-c2ccc3ncc4c(c3c2)n(C2CCOCC2)c(=O)n4C)cn1 [AZD0156] + O=C(c1cc(Cc2n[nH]c(=O)c3ccccc23)ccc1F)N1CCN(C(=O)C2CC2)CC1 [Olaparib] (first compound max 3 µM, partner max 3 µM)	0.653	0.505	0.512	0.352	0.539		0.038	0.131	0.378	0.109	0.233	0.792	0.496	0.286	0.212	0.0695	0.162	0.157	0.879	0.283
C=CCn1c(=O)c2cnc(Nc3ccc(N4CCN(C)CC4)cc3)nc2n1-c1cccc(C(C)(C)O)n1 [AZD1775] + C1CN(CCC1(C(=O)N[C@@H](CCO)C2=CC=C(C=C2)Cl)N)C3=NC=NC4=C3C=CN4 [Capivasertib] (first compound max 3 µM, partner max 3 µM)	0.526	0.754	0.929	0.929	0.69		0.567	0.877	0.772	0.793	0.765	0.873	0.847	0.574	0.798	0.271	0.572	0.434	1	0.591
C=CCn1c(=O)c2cnc(Nc3ccc(N4CCN(C)CC4)cc3)nc2n1-c1cccc(C(C)(C)O)n1 [AZD1775] + C[C@@H]1COCCN1C2=NC(=NC(=C2)C3(CC3)[S@](=N)(=O)C)C4=C5C=CNC5=NC=C4 [AZD6738] (first compound max 1 µM, partner max 10 µM)	0.907	0.977	0.588	0.935	0.72	0.766	0.583	0.948	0.691	0.891	0.487	0.944	0.97	0.593	0.908	0.409	0.476	0.502	1	0.492
C=CCn1c(=O)c2cnc(Nc3ccc(N4CCN(C)CC4)cc3)nc2n1-c1cccc(C(C)(C)O)n1 [AZD1775] + O=C(c1cc(Cc2n[nH]c(=O)c3ccccc23)ccc1F)N1CCN(C(=O)C2CC2)CC1 [Olaparib] (first compound max 1 µM, partner max 10 µM)	0.822	0.951	0.488	0.721	0.599	0.602	0.443	0.694	0.591	0.774	0.422	0.922	0.789	0.302	0.577	0.22	0.317	0.258	1	0.432
CCN(CCO)CCCOc1ccc2c(Nc3cc(CC(=O)Nc4cccc(F)c4)[nH]n3)ncnc2c1 [AZD2811] + C=CCn1c(=O)c2cnc(Nc3ccc(N4CCN(C)CC4)cc3)nc2n1-c1cccc(C(C)(C)O)n1 [AZD1775] (first compound max 1 µM, partner max 1 µM)	0.708	0.981	0.679	0.877	0.469	0.685	0.293	0.449	0.436	0.842	0.429	0.879	0.976	0.227	0.43	0.249	0.283	0.234	1	0.408
CCN(CCO)CCCOc1ccc2c(Nc3cc(CC(=O)Nc4cccc(F)c4)[nH]n3)ncnc2c1 [AZD2811] + C[C@@H]1COCCN1C2=NC(=NC(=C2)C3(CC3)[S@](=N)(=O)C)C4=C5C=CNC5=NC=C4 [AZD6738] (first compound max 1 µM, 7x7, partner max 10 µM)	0.852	0.979	0.4	0.936	0.686	0.688	0.179	0.567	0.582	0.842	0.397	0.913	1	0.547	0.83	0.176	0.266	0.383	0.967	0.288
CCN(CCO)CCCOc1ccc2c(Nc3cc(CC(=O)Nc4cccc(F)c4)[nH]n3)ncnc2c1 [AZD2811] + O=C(c1cc(Cc2n[nH]c(=O)c3ccccc23)ccc1F)N1CCN(C(=O)C2CC2)CC1 [Olaparib] (first compound max 1 µM, 7x7, partner max 10 µM)	0.841	0.975	0.566	0.732	0.564	0.223	0.0537	0.293	0.232	0.319	0.164	0.971	0.945	0.21	0.197	0.205	0.221	0.0912	0.931	0.147
Cc1c2c(nn1C)CSCc1cc(n(C)n1)CSc1cc(c3ccccc3c1)OCCCc1c(C(=O)O)n(C)c3c-2c(Cl)ccc13 [AZD5991] + CC1(C)CCC(CN2CCN(c3ccc(C(=O)NS(=O)(=O)c4ccc(NCC5CCOCC5)c([N+](=O)[O-])c4)c(Oc4cnc5[nH]ccc5c4)c3)CC2)=C(c2ccc(Cl)cc2)C1 [Venetoclax] (first compound max 1 µM, 7x7, partner max 1 µM)	0.868	1	0.353		0.975	0.677	0.858	0.794	0.203	0.138	0.248	0.996	0.629	0.178	0.184	0.23	0.177	0.161	0.975	0.146
CCc1c2c(nc3ccc(O)cc13)-c1cc3c(c(=O)n1C2)COC(=O)[C@]3(O)CC [SN-38] + O=C(c1cc(Cc2n[nH]c(=O)c3ccccc23)ccc1F)N1CCN(C(=O)C2CC2)CC1 [Olaparib] (first compound max 0.3 µM, 7x7, partner max 10 µM)	1	0.981	0.963	0.962	0.742		0.103	0.397					0.783		1	0.175		0.493	1	0.646
CC1(C)CCC(CN2CCN(c3ccc(C(=O)NS(=O)(=O)c4ccc(NCC5CCOCC5)c([N+](=O)[O-])c4)c(Oc4cnc5[nH]ccc5c4)c3)CC2)=C(c2ccc(Cl)cc2)C1 [Venetoclax] + CS(=O)(=O)CCNCc1ccc(-c2ccc3ncnc(Nc4ccc(OCc5cccc(F)c5)c(Cl)c4)c3c2)o1 [Lapatinib] (first compound max 1 µM, 7x7, partner max 10 µM)	0.207				0.263		0.129						0.108		0.392	0.445		0.134	0.798	0.129
